In patent publication US7749996B2, “Heterotricyclic metalloprotease inhibitors” (Alantos Pharmaceutical Holdings, Inc., priority 2006, dated 2010):

Legend:
Type in all cases: biochemical
[1] = target: T1, catalytic domain of MMP-3 enzyme (Homo sapiens, UniProt P08254); test: Assay for determining MMP-3 inhibition (NFF-3 fluorescent substrate); conditions: Table 3, activity group
T1 construct: stock solution of the catalytic domain of MMP-3 enzyme (Biomol, Cat. No. SE-109); purchased Biomol SE-109
T1 sequence (P08254 100-272 limits assumed): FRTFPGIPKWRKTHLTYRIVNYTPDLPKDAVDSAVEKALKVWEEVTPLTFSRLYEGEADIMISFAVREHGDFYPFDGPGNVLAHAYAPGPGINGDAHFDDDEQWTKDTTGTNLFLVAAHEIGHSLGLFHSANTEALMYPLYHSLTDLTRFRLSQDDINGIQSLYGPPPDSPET
Description: (§1) The typical assay for MMP-3 activity is carried out in assay buffer comprised of 50 mM MES, pH 6.0, 10 mM CaCl2 and 0.05% Brij-35. Different concentrations of tested compounds are prepared in assay buffer in 50 μL aliquots. […] The mixture of enzyme and compound in assay buffer is thoroughly mixed and incubated for 10 min at room temperature. […] The time-dependent increase in fluorescence is measured at the 330 nm excitation and 390 nm emission by an automatic plate multireader. The IC50 values are calculated from the initial reaction rates.

[2] = target: T2, activated MMP-8 enzyme (Homo sapiens, UniProt P22894); test: Assay for determining MMP-8 inhibition (fluorescent substrate); conditions: Table 2, activity group
T2 construct: purchased Calbiochem 444229
T2 sequence (P22894 101-467): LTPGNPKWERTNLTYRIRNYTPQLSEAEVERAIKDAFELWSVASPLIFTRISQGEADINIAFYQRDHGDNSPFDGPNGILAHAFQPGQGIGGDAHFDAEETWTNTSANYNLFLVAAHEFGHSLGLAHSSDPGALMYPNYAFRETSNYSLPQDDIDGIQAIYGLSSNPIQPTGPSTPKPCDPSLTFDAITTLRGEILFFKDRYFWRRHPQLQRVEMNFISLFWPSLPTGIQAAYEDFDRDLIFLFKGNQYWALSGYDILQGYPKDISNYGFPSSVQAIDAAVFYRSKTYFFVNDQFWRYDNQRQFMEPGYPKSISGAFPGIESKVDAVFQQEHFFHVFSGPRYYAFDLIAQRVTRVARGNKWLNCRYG
Description: as §1, with “MMP-8” for “MMP-3”, “Tris,” for “MES,”, “7.5, 150 mM NaCl, 5” for “6.0, 10”, “37° C.” for “room temperature.”, “320” for “330”, “multireader at 37° C.” for “multireader.”

[3] = target: T3, catalytic domain of MMP-13 enzyme (Homo sapiens, UniProt P45452); test: Assay for determining MMP-13 inhibition (fluorescent substrate); conditions: Table 1, activity group
T3 construct: stock solution of catalytic domain of MMP-13 enzyme (produced by Alantos or commercially available from Invitek (Berlin), Cat.# 30100812); purchased Invitek (Berlin) 30100812
Description: as §1, with “MMP-13” for “MMP-3”, “Tris,” for “MES,”, “7.5, 150 mM NaCl, 5” for “6.0, 10”, “320” for “330”, “by” for “by an”

Compound | IC50 [1] [nM] | IC50 [2] [nM] | IC50 [3] [nM]
O=C(O)CNC(=O)C1CCc2sc3nc(C(=O)NCc4ccc5c(c4)NC(=O)CO5)[nH]c(=O)c3c21 (centres unmarked) [15/2] | 250 to 20000 | < 250 | < 100
O=C(O)CC1CCCc2sc3nc(C(=O)NCc4ccc5c(c4)NC(=O)CO5)[nH]c(=O)c3c21 (centres unmarked) [Example 3] | 250 to 20000 | 250 to 20000 | < 100
O=C1COc2ccc(CNC(=O)C3NC(=O)c4c(sc5c4CCCN(CC4CCCCO4)C5=O)N3)cc2N1 (centres unmarked) [2/188] | 250 to 20000 | < 250 | < 100
Nc1c(N2CCc3ccc(CNC(=O)c4nc5sc6c(c5c(=O)[nH]4)CCS(=O)(=O)C6)cc3C2)c(=O)c1=O [2/104] | < 250 | < 250 | –
CC(C)(C)OC(=O)N1CCc2sc3nc(C(=O)NCc4ccc5c(c4)NC(=O)CO5)[nH]c(=O)c3c2CC1 [2/171] | 250 to 20000 | < 250 | < 100
CC1c2c(sc3nc(C(=O)NCc4ccc5c(c4)NC(=O)CO5)[nH]c(=O)c23)CS1(=O)=O (centres unmarked) [22/2] | 250 to 20000 | 250 to 20000 | < 100
O=C1COc2ccc(CNC(=O)c3nc4ccc5c(c4c(=O)[nH]3)CCC5)cc2N1 [2/245] | 250 to 20000 | – | < 100
O=C1COc2ccc(CNC(=O)c3nc4sc5c(c4c(=O)[nH]3)CC(C(=O)O)C5)cc2N1 (centres unmarked) [4/15] | 250 to 20000 | < 250 | < 100
NC(=O)C1Cc2sc3nc(C(=O)NCc4ccc5c(c4)CN(c4c(N)c(=O)c4=O)CC5)[nH]c(=O)c3c2C1 (centres unmarked) [2/232] | 250 to 20000 | – | –
Cc1snc2sc3c(=O)[nH]c(C(=O)NCc4ccc5c(c4)NC(=O)CO5)nc3c12 [Example 39/7] | 250 to 20000 | 250 to 20000 | 100 to 20000
COc1ccc2c(c1)CCc1sc3nc(C(=O)NCc4ccc5c(c4)NC(=O)CO5)[nH]c(=O)c3c1-2 [2/107] | 250 to 20000 | < 250 | < 100
O=C1COc2ccc(CNC(=O)c3nc4sc5c(c4c(=O)[nH]3)CCC[S+]([O-])C5)cc2N1 (centres unmarked) [Example 26] | 250 to 20000 | < 250 | < 100
COc1ccc2c(c1)CCc1sc3nc(C(=O)NCc4ccc5c(c4)CN(c4c(N)c(=O)c4=O)CC5)[nH]c(=O)c3c1-2 [2/108] | 250 to 20000 | – | < 100
NC(=O)CC1CCCc2sc3nc(C(=O)NCc4ccc5c(c4)NC(=O)CO5)[nH]c(=O)c3c21 (centres unmarked) [2/240] | 250 to 20000 | – | –
O=C1COc2ccc(CNC(=O)c3nc4sc5c(c4c(=O)[nH]3)CCCCC5)cc2N1 [2/117] | – | < 250 | < 100
CS(=O)(=O)N1Cc2sc3nc(C(=O)NCc4ccc5c(c4)NC(=O)CO5)[nH]c(=O)c3c2C1 [42/2] | < 250 | < 250 | < 100
O=C(NCc1cccc(N2CCSCC2)c1)c1nc2sc3c(c2c(=O)[nH]1)CCC3 [2/528] | – | 250 to 20000 | < 100
Nc1c(N2CCc3ccc(CNC(=O)c4nc5sc6c(c5c(=O)[nH]4)CCC6)cc3C2)c(=O)c1=O [2/52] | – | < 250 | < 100
CC(=O)N1CCc2c(sc3nc(C(=O)NCc4ccc5c(c4)CN(c4c(N)c(=O)c4=O)CC5)[nH]c(=O)c23)C1 [2/95] | 250 to 20000 | < 250 | < 100
O=C1COc2ccc(CNC(=O)c3nc4ccc5c(c4c(=O)[nH]3)OCO5)cc2N1 [Example 28] | < 250 | – | < 100
CCOC(=O)CC1CCCc2sc3nc(C(=O)NCc4ccc5c(c4)NC(=O)CO5)[nH]c(=O)c3c21 (centres unmarked) [2/236] | 250 to 20000 | – | –
Cc1ccc(CNC(=O)C2CCc3sc4nc(C(=O)NCc5ccc6c(c5)NC(=O)CO6)[nH]c(=O)c4c32)cc1 (centres unmarked) [2/174] | – | < 250 | < 100
C#CCNC(=O)CC1CCCc2sc3nc(C(=O)NCc4ccc5c(c4)NC(=O)CO5)[nH]c(=O)c3c21 (centres unmarked) [2/251] | – | < 250 | < 100

Compound | IC50 [1] [nM] | IC50 [2] [nM] | IC50 [3] [nM]
O=C1COc2ccc(CNC(=O)c3nc4sc5c(c4c(=O)[nH]3)CCCS(=O)(=O)C5)cc2N1 [Example 22/1] | 250 to 20000 | < 250 | < 100
CCOC(=O)C1CCc2sc3nc(C(=O)NCc4ccc5c(c4)CN(c4c(N)c(=O)c4=O)CC5)[nH]c(=O)c3c21 (centres unmarked) [2/114] | – | < 250 | < 100
O=C1COc2ccc(CNC(=O)c3nc4sc5c(c4c(=O)[nH]3)CN(c3ncccn3)C5)cc2N1 [Example 43] | < 250 | – | < 100
CCOC(=O)C1CCc2sc3nc(C(=O)NCc4ccc5c(c4)NC(=O)CO5)[nH]c(=O)c3c21 (centres unmarked) [2/113] | – | < 250 | < 100
CN(C)C(=O)C1CCc2sc3nc(C(=O)NCc4ccc5c(c4)NC(=O)CO5)[nH]c(=O)c3c21 (centres unmarked) [2/173] | – | 250 to 20000 | < 100
Cc1cccc(CNC(=O)c2nc3sc4c(c3c(=O)[nH]2)CCC4)c1 [2/383] | – | 250 to 20000 | 100 to 20000
CC(C)(C)OC(=O)CNC(=O)C1CCc2sc3nc(C(=O)NCc4ccc5c(c4)NC(=O)CO5)[nH]c(=O)c3c21 (centres unmarked) [2/224] | – | < 250 | < 100
CCOC(=O)C1CCc2sc3nc(C(=O)NCc4ccc5c(c4)NC(=O)CO5)[nH]c(=O)c3c2C1 (centres unmarked) [2/208] | 250 to 20000 | – | < 100
Nc1c(N2CCc3ccc(CNC(=O)c4nc5sc6c(c5c(=O)[nH]4)CCCCC6)cc3C2)c(=O)c1=O [2/118] | – | < 250 | < 100
Nc1c(NCc2cccc(CNC(=O)c3nc4sc5c(c4c(=O)[nH]3)CCC5)c2)c(=O)c1=O [2/413] | – | < 250 | < 100
O=C1COc2ccc(CNC(=O)c3nc4sc5c(c4c(=O)[nH]3)CN(C(=O)CC(F)(F)F)C5)cc2N1 [Example 42/1] | 250 to 20000 | 250 to 20000 | –
COc1ccc(CNC(=O)c2nc3sc4c(c3c(=O)[nH]2)CCC4)cc1 [2/384] | – | 250 to 20000 | 100 to 20000
O=C(NCc1ccc(F)cc1)c1nc2sc3c(c2c(=O)[nH]1)CCC3 [2/290] | – | 250 to 20000 | < 100
Nc1c(N2CCc3ccc(CNC(=O)c4nc5sc6c(c5c(=O)[nH]4)CCS6)cc3C2)c(=O)c1=O [2/122] | – | < 250 | < 100
CC(C)CNC(=O)C1Cc2sc3nc(C(=O)NCc4ccc5c(c4)NC(=O)CO5)[nH]c(=O)c3c2C1 (centres unmarked) [2/231] | 250 to 20000 | – | < 100
Cc1cc(CNC(=O)c2nc3sc4c(c3c(=O)[nH]2)CCC4)ccc1F [2/313] | – | < 250 | < 100
O=C(NCc1cccc(F)c1)c1nc2sc3c(c2c(=O)[nH]1)CCC3 [2/292] | – | 250 to 20000 | 100 to 20000
O=C1COc2ccc(CNC(=O)c3nc4sc5c(c4c(=O)[nH]3)CCCC5)cc2N1 [2/33] | – | < 250 | < 100
O=C1COc2ccc(CNC(=O)c3nc4sc5c(c4c(=O)[nH]3)CNC5)cc2N1 [Example 41] | – | 250 to 20000 | < 100
O=C1COc2ccc(CNC(=O)c3nc4cc5ccccc5cc4c(=O)[nH]3)cc2N1 [39/20] | – | 250 to 20000 | 100 to 20000
CCOC(=O)C1Cc2sc3nc(C(=O)NCc4ccc5c(c4)NC(=O)CO5)[nH]c(=O)c3c2C1 (centres unmarked) [2/210] | 250 to 20000 | – | < 100
O=C1COc2ccc(CNC(=O)c3nc4sc5c(c4c(=O)[nH]3)C(C(=O)NCc3ccccc3)CC5)cc2N1 (centres unmarked) [2/167] | – | < 250 | < 100
Nc1c(N2CCc3ccc(CNC(=O)c4nc5sc6c(c5c(=O)[nH]4)CCOC6)cc3C2)c(=O)c1=O [2/153] | – | < 250 | < 100
